We go through twelve compounds from ChEMBL document CHEMBL1130940, “Combinatorial chemistry: from peptides and peptidomimetics to small organic and heterocyclic compounds” (Bioorg Med Chem Lett, 1998).

The experiment deals with Sigma non-opioid intracellular receptor 1 (Homo sapiens, UniProt Q99720). In words: Binding affinity for [3H]- pentazocine at sigma opioid receptor.
Chain of Sigma non-opioid intracellular receptor 1 (Q99720 whole entry): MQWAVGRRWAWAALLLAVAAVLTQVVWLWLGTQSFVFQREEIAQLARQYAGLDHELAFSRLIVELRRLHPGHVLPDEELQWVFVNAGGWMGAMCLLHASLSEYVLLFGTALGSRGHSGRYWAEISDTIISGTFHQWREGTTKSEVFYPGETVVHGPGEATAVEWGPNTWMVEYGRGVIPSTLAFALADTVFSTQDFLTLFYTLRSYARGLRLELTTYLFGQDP

Compound `CC[C@@H](C)[C@H](C(=O)NCc1ccccc1)N1C(=O)[C@@H](CCCCN)N(Cc2ccccc2)C1=O` returned a Ki of 125 nM. The figure for `CC[C@H](C)[C@H](C(=O)NCc1ccccc1)N1C(=O)[C@@H](CCCN)N(Cc2ccccc2)C1=O` is 333 nM; for `NCCCC[C@@H]1C(=O)N([C@@H](CC2CCCCC2)C(N)=O)C(=O)N1Cc1ccccc1` it is 254 nM; for `CCC[C@H](C(=O)NCc1ccccc1)N1C(=O)[C@@H](CCCN)N(Cc2ccccc2)C1=O` it is 435 nM. The figure for `NCCC[C@H]1C(=O)N([C@H](CC2CCCCC2)C(N)=O)C(=O)N1Cc1ccccc1` is 406 nM; for `CCC[C@H](C(=O)NCc1ccccc1)N1C(=O)[C@@H](CCCCCN)N(Cc2ccccc2)C1=O` it is 2420 nM. The figure for `NCCCC[C@@H]1C(=O)N([C@H](CC2CCCCC2)C(N)=O)C(=O)N1Cc1ccccc1` is 189 nM. For the compound `CC[C@H](C)[C@@H](C(=O)NCc1ccccc1)N1C(=O)[C@@H](CCCCN)N(Cc2ccccc2)C1=O`, the Ki amounted to 62 nM.

`CCC[C@H](C(=O)NCc1ccccc1)N1C(=O)[C@@H](CCCCN)N(Cc2ccccc2)C1=O` yielded a Ki of 80 nM. In turn, `NCCCCC[C@@H]1C(=O)N([C@H](CC2CCCCC2)C(N)=O)C(=O)N1Cc1ccccc1` displayed a Ki of 3630 nM. `CC[C@H](C)[C@H](C(=O)NCc1ccccc1)N1C(=O)[C@@H](CCCCCN)N(Cc2ccccc2)C1=O`: the Ki was found to be 4610 nM. The figure for `CCC[C@H](C(=O)NCc1ccccc1)N1C(=O)[C@H](CCCCN)N(Cc2ccccc2)C1=O` is 64 nM.
